Laboratory results taken from US20230203081A1, “LINCOSAMIDE ANTIBIOTICS AND USES THEREOF” (President and Fellows of Harvard College, priority 2020, published 2023).
Values after ≈ are worked out from the molar mass of the structure shown.

Legend:
Assay type in all cases: cell-based
[1] = tested on: E. coli ΔTolC; assay: microbe, parasite or virus in culture; details: Escherichia coli
Summary of the method: (§1)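 Per CLSI, MICs by broth microdilution or agar dilution; strains other than streptococci and anaerobes were sub-cultured overnight at 35° C on blood agar, with a final broth inoculum of 5×10^5 CFU/mL.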

[2] = tested on: S. aureus BAA 977 iErmA; assay: microbe, parasite or virus in culture; details: Staphylococcus aureus, BAA-977 / MRSA
Summary of the method: as §1

[3] = tested on: S. aureus MP-549 msrA; assay: microbe, parasite or virus in culture; details: Staphylococcus aureus, MP549MSRA
Summary of the method: as §1

[4] = tested on: broad panel of different clinical isolates; assay: microbe, parasite or virus in culture
Summary of the method: as §1

[5] = tested on: E. coli LptD; assay: MIC (broth microdilution or agar dilution, CLSI); details: Escherichia coli, E. coli HAV#040; LptD; read-out: MIC
Summary of the method: as §1

[6] = tested on: E. faecalis ATCC 29212; assay: MIC (broth microdilution or agar dilution, CLSI); details: Enterococcus faecalis, ATCC29212
Summary of the method: as §1

[7] = tested on: K. pneumoniae ATCC 10031; assay: MIC (broth microdilution or agar dilution, CLSI); details: Klebsiella pneumoniae, ATCC10031
Summary of the method: as §1

[8] = tested on: S. aureus ATCC 29213; assay: MIC (broth microdilution or agar dilution, CLSI); details: Staphylococcus aureus, ATCC29213
Summary of the method: as §1

[9] = tested on: S. aureus ATCC 700699; assay: MIC (broth microdilution or agar dilution, CLSI); details: Staphylococcus aureus, ATCC 700699 / VISA
Summary of the method: as §1

[10] = tested on: S. aureus ATCC BAA-1707 (MRSA); assay: MIC (broth microdilution or agar dilution, CLSI); details: Staphylococcus aureus
Summary of the method: as §1

[11] = tested on: S. aureus MMX 3035 cErmA; assay: MIC (broth microdilution or agar dilution, CLSI); details: Staphylococcus aureus, MMX3035CERMA
Summary of the method: as §1

[12] = tested on: S. aureus hVISA; assay: MIC (broth microdilution or agar dilution, CLSI); details: Staphylococcus aureus
Summary of the method: as §1

[13] = tested on: S. pneumoniae ATCC 49619; assay: MIC (broth microdilution or agar dilution, CLSI); details: Streptococcus pneumoniae, ATCC49619
Summary of the method: as §1

[14] = tested on: S. pneumoniae MMX 3028 cErmB; assay: MIC (broth microdilution or agar dilution, CLSI); details: Streptococcus pneumoniae, MMX3028CERMB
Summary of the method: as §1

[15] = tested on: S. pneumoniae MMX 3031 cMefA; assay: MIC (broth microdilution or agar dilution, CLSI); details: Streptococcus pneumoniae, MMX3031CMEFA
Summary of the method: as §1

[16] = tested on: S. pyogenes ATCC 19615; assay: MIC (broth microdilution or agar dilution, CLSI); details: Streptococcus pyogenes, ATCC19615
Summary of the method: as §1

[17] = tested on: S. pyogenes MMX 946; cErmB; assay: MIC (broth microdilution or agar dilution, CLSI); details: Streptococcus pyogenes
Summary of the method: as §1

CN[C@H](CC(C)C)C(=O)N[C@H]1C(=O)N[C@@H](CC(N)=O)C(=O)N[C@H]2C(=O)N[C@H]3C(=O)N[C@H](C(=O)N[C@H](C(=O)O)c4cc(O)cc(O)c4-c4cc3ccc4O)[C@H](O)c3ccc(c(Cl)c3)Oc3cc2cc(c3O[C@@H]2O[C@H](CO)[C@@H](O)[C@H](O)[C@H]2O[C@H]2C[C@](C)(N)[C@H](O)[C@H](C)O2)Oc2ccc(cc2Cl)[C@H]1O [Vancomycin]
MIC [1]: > 128 µg/mL | MIC [2]: 1 µg/mL (≈ 0.69 µM) | MIC [3]: 1 µg/mL (≈ 0.69 µM) | MIC ([4]; Acinetobacter baumannii, A. baumannii HAV#651, Clinical): 128 µg/mL (≈ 88.3 µM) | MIC ([4]; Acinetobacter baumannii, A. baumannii HAV#652 Clinical): 128 µg/mL (≈ 88.3 µM) | MIC ([4]; Acinetobacter baumannii, A. baumannii HAV#653, Clinical): 128 µg/mL (≈ 88.3 µM) | MIC ([4]; Acinetobacter baumannii, A. baumannii HAV#654, Clinical): 128 µg/mL (≈ 88.3 µM) | MIC ([4]; Acinetobacter baumannii, A. baumannii HAV#655, Clinical): 128 µg/mL (≈ 88.3 µM) | MIC ([4]; Acinetobacter baumannii, A. baumannii HAV#656, Clinical): > 128 µg/mL | MIC ([4]; Acinetobacter baumannii, A. baumannii HAV#657, Clinical): > 128 µg/mL | MIC ([4]; Acinetobacter baumannii, A. baumannii HAV#658, Clinical): > 128 µg/mL | MIC ([4]; Acinetobacter baumannii, A. baumannii HAV#659, Clinical): > 128 µg/mL | MIC ([4]; Acinetobacter baumannii, A. baumannii HAV#660, Clinical): > 128 µg/mL | MIC ([4]; Acinetobacter baumannii, A. baumannii HAV#661, Clinical): 128 µg/mL (≈ 88.3 µM) | MIC ([4]; Acinetobacter baumannii, A. baumannii HAV#662, Clinical): > 128 µg/mL | MIC ([4]; Acinetobacter baumannii, A. baumannii HAV#663, Clinical): 128 µg/mL (≈ 88.3 µM) | MIC ([4]; Acinetobacter baumannii, A. baumannii HAV#664, Carbapenem R): > 128 µg/mL | MIC ([4]; Enterococcus faecalis, E. faecalis HAV#602, Clincal): 4 µg/mL (≈ 2.76 µM) | MIC ([4]; Enterococcus faecalis, E. faecalis HAV#607, Clinical): > 128 µg/mL | MIC ([4]; Enterococcus faecalis, E. faecalis HAV#608, Clinical): 16 µg/mL (≈ 11 µM) | MIC ([4]; Enterococcus faecalis, E. faecalis HAV#609, Clinical): 32 µg/mL (≈ 22.1 µM) | MIC ([4]; Enterococcus faecalis, E. faecalis HAV#610, Clinical): 32 µg/mL (≈ 22.1 µM) | MIC ([4]; Enterococcus faecalis, S. faecalis 5060, Line R & Vanco R): > 256 µg/mL | MIC ([4]; Enterococcus faecalis, S. faecalis 5074, Line R): 2 µg/mL (≈ 1.38 µM) | MIC ([4]; Enterococcus faecalis, VRE, E. faecalis HAV#251, Clinical VRE): 8 µg/mL (≈ 5.52 µM) | MIC ([4]; Enterococcus faecalis, VRE, E. faecalis HAV#606, Clinical): > 128 µg/mL | MIC ([4]; Enterococcus faecium, E. faecium HAV#317, Clinical): 2 µg/mL (≈ 1.38 µM) | MIC ([4]; Enterococcus faecium, E. faecium HAV#324, Clinical): > 128 µg/mL | MIC ([4]; Enterococcus faecium, E. faecium HAV#327, Clinical): 4 µg/mL (≈ 2.76 µM) | MIC ([4]; Enterococcus faecium, E. faecium HAV#328, Clinical): > 128 µg/mL | MIC ([4]; Enterococcus faecium, E. faecium HAV#329, Clinical): > 128 µg/mL | MIC ([4]; Enterococcus faecium, VRE, E. faecium HAV#318, VanA): > 64 µg/mL | MIC ([4]; Enterococcus faecium, VRE, E. faecium HAV#319, Line R & Vanco R): > 256 µg/mL | MIC ([4]; Enterococcus faecium, VRE, E. faecium HAV#320, Clinical): > 128 µg/mL | MIC ([4]; Escherichia coli, E. coli HAV#503, Clinical): 128 µg/mL (≈ 88.3 µM) | MIC ([4]; Escherichia coli, E. coli HAV#511, Clinical): > 128 µg/mL | MIC ([4]; Escherichia coli, E. coli HAV#512, Clinical): > 128 µg/mL | MIC ([4]; Escherichia coli, E. coli HAV#513, Clinical): > 128 µg/mL | MIC ([4]; Escherichia coli, E. coli HAV#514, Clinical): 128 µg/mL (≈ 88.3 µM) | MIC ([4]; Escherichia coli, E. coli HAV#516, ESBL-producing): 128 µg/mL (≈ 88.3 µM) | MIC ([4]; Haemophilus influenzae, ATCC9007, H. influenzae HAV#376, ATCC-9007): > 64 µg/mL | MIC ([4]; Klebsiella pneumoniae, K. pneumoniae HAV#404, Clinical): > 128 µg/mL | MIC ([4]; Klebsiella pneumoniae, K. pneumoniae HAV#405, Clinical): > 128 µg/mL | MIC ([4]; Klebsiella pneumoniae, K. pneumoniae HAV#406, Clinical): > 128 µg/mL | MIC ([4]; Klebsiella pneumoniae, K. pneumoniae HAV#407, Clinical): > 128 µg/mL | MIC ([4]; Klebsiella pneumoniae, K. pneumoniae HAV#408, Clinical): > 128 µg/mL | MIC ([4]; Klebsiella pneumoniae, K. pneumoniae HAV#409, ESBL-producing): > 128 µg/mL | MIC ([4]; Staphylococcus aureus, MRSA, S. aureus HAV#0107, MRSA Col(Colindale, England)): 2 µg/mL (≈ 1.38 µM) | MIC ([4]; Staphylococcus aureus, MRSA, S. aureus HAV#218, Line R): 1 µg/mL (≈ 0.69 µM) | MIC ([4]; Staphylococcus aureus, MRSA, S. aureus HAV#220, Line R): 1 µg/mL (≈ 0.69 µM) | MIC ([4]; Staphylococcus aureus, MSSA, S. aureus HAV#219, Line R): 1 µg/mL (≈ 0.69 µM) | MIC ([4]; Staphylococcus aureus, S. aureus HAV#051, mecA, norA, spcl, ermA, aad1, aac6′-aph2″): 2 µg/mL (≈ 1.38 µM) | MIC ([4]; Staphylococcus aureus, S. aureus HAV#052, mecA, norA, fosB, blaZ): 2 µg/mL (≈ 1.38 µM) | MIC ([4]; Staphylococcus aureus, S. aureus HAV#053 mecA, norA, fosB): 2 µg/mL (≈ 1.38 µM) | MIC ([4]; Staphylococcus aureus, S. aureus HAV#054, mecA, norA, spcl, aad1, fosB, ermA, aac6′-aph2″, blaZ): 1 µg/mL (≈ 0.69 µM) | MIC ([4]; Staphylococcus aureus, S. aureus HAV#211, Clinical): 0.5 µg/mL (≈ 0.345 µM) | MIC ([4]; Staphylococcus aureus, S. aureus HAV#212, Clinical): 0.5 µg/mL (≈ 0.345 µM) | MIC ([4]; Staphylococcus aureus, S. aureus HAV#213, Clinical): 0.5 µg/mL (≈ 0.345 µM) | MIC ([4]; Staphylococcus aureus, S. aureus HAV#214, Clinical): 0.5 µg/mL (≈ 0.345 µM) | MIC ([4]; Staphylococcus aureus, S. aureus HAV#215, Clinical): 1 µg/mL (≈ 0.69 µM) | MIC ([4]; Staphylococcus aureus, S. aureus HAV#216, Clinical, cfr): > 64 µg/mL | MIC ([4]; Staphylococcus aureus, S. aureus HAV#217, cfr): > 64 µg/mL | MIC ([4]; Staphylococcus aureus, VISA, S. aureus HAV#203, Clinical (VISA)): 8 µg/mL (≈ 5.52 µM) | MIC ([4]; Staphylococcus epidermidis, S. epidermidis HAV# 275 Clinical, cfr): > 64 µg/mL | MIC ([4]; Staphylococcus epidermidis, S. epidermidis HAV# 276, cfr): > 64 µg/mL | MIC ([4]; Staphylococcus epidermidis, S. epidermidis HAV#277, Line R): 2 µg/mL (≈ 1.38 µM) | MIC ([4]; Staphylococcus epidermidis, S. epidermidis HAV#278 Line R): 2 µg/mL (≈ 1.38 µM) | MIC ([4]; Staphylococcus epidermidis, S. epidermidis HAV#279, Line R): 2 µg/mL (≈ 1.38 µM) | MIC ([4]; Staphylococcus haemolyticus, S. haemolyticus 5052, Line R & Methicillin R): 1 µg/mL (≈ 0.69 µM) | MIC ([4]; Streptococcus pneumoniae, ATCC700673, S. pneumoniae HAV#352, ATCC 700673, MDR): 0.5 µg/mL (≈ 0.345 µM) | MIC ([4]; Streptococcus pneumoniae, ATCCBAA255, S. pneumoniae HAV#354, ATCC-BAA-255): 1 µg/mL (≈ 0.69 µM) | MIC ([4]; Streptococcus pneumoniae, ATCCBAA334, S. pneumoniae HAV#353, ATCC-BAA-334): 0.5 µg/mL (≈ 0.345 µM) | MIC ([4]; Streptococcus pneumoniae, S. pneumoniae HAV#356, Clinical): 2 µg/mL (≈ 1.38 µM) | MIC ([4]; Streptococcus pneumoniae, S. pneumoniae HAV#358, Clinical): 1 µg/mL (≈ 0.69 µM) | MIC [5]: 1 µg/mL (≈ 0.69 µM) | MIC [6]: 4 µg/mL (≈ 2.76 µM) | MIC [7]: > 64 µg/mL | MIC [8]: 1 µg/mL (≈ 0.69 µM) | MIC [9]: 8 µg/mL (≈ 5.52 µM) | MIC [10]: 1 µg/mL (≈ 0.69 µM) | MIC [11]: 2 µg/mL (≈ 1.38 µM) | MIC [12]: 2 µg/mL (≈ 1.38 µM) | MIC [13]: 0.5 µg/mL (≈ 0.345 µM) | MIC [14]: 0.25 µg/mL (≈ 0.173 µM) | MIC [15]: 0.5 µg/mL (≈ 0.345 µM) | MIC [16]: 0.5 µg/mL (≈ 0.345 µM) | MIC [17]: 0.5 µg/mL (≈ 0.345 µM)
